The values that follow come from paper PMC6712483, “BlsA Is a Low to Moderate Temperature Blue Light Photoreceptor in the Human Pathogen Acinetobacter baumannii” (Frontiers in Microbiology, 2019).

The target of the assay is T1, BlsA (dBlsA, His-BlsA) (Acinetobacter baumannii, UniProt V5VB82).
T1 construct: gene ycgF; short BLUF protein, recombinant His-tag fusion, purified as in Abatedaga et al. 2017; approximately 20 kDa; residues named Tyr7, Gln51, Trp78, Trp92
The experiment in a line: cofactor fluorescence emission and anisotropy (steady-state and time-resolved), UV-vis photocycle. In kind it is binding. Conditions: dark-adapted state; cofactor bound on purification; temperature series, compared with free FAD.

T1 sequence (V5VB82 entry or part of it): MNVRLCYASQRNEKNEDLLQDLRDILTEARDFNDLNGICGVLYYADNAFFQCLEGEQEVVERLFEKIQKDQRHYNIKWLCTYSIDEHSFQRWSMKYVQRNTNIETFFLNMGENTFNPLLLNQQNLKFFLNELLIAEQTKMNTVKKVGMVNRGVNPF

Regarding `Cc1cc2nc3c(=O)[nH]c(=O)nc-3n(C[C@H](O)[C@H](O)[C@H](O)COP(=O)(O)OP(=O)(O)OC[C@H]3O[C@@H](n4cnc5c(N)ncnc54)[C@H](O)[C@@H]3O)c2cc1C` [FAD], the “cofactor fluorescence emission and anisotropy (steady-state and time-resolved),” value is listed as “the steady-state anisotropy of the cofactor in dBlsA solutions is strongly decreased”.
